Assay results taken from patent US20240285634A1, “COMPOUND AND METHOD FOR TREATING CHEMOTHERAPY-ASSOCIATED GASTROINTESTINAL SIDE EFFECTS” (ONQUALITY PHARMACEUTICALS CHINA LTD., priority 2021, published 2024).
Counter-ions that a name gives are not always drawn.

Key:
[1] = system: Chemotherapeutic agent-caused diarrhea models of Balb/c mice; test: Relieving effect on diarrhea caused by a chemotherapeutic agent (Examples 1-201); format: in vivo; conditions: for diarrhea gradings compared with the chemotherapeutic agent group: administered before the chemotherapeutic agent, Table 3 and FIG. 2
Description: Construction of mouse animal models: Chemotherapeutic agent-caused diarrhea models of Balb/c mice were constructed according to the administration mode and frequency of the chemotherapeutic agent as shown in Table 3. After administration for several days, mice developed different extents of diarrhea symptoms (as shown in FIG. 1), which were similar to the conditions in human. Thus, chemotherapeutic agent-caused diarrhea models of mice are very good models to mimic diarrhea in human caused by the chemotherapeutic agent.
Balb/c mice were fed for 1 week, and then divided into groups. The experiment was divided into a control group, a chemotherapeutic agent group, and a group of the compound as shown in Formula I, each of which comprised 10 mice, to perform the administration experiment, for which the administration dosage, mode, time and frequency were shown in Table 3. The control group: being injected or intragastrically administered with the same solvent as that used in the group of the compound as shown in Formula I (the injection mode and time were shown in Table 3), and then being injected or intragastrically administered with the same solvent as that used in the chemotherapeutic agent group (the administration mode was shown in Table 3); the chemotherapeutic agent group: being injected or intragastrically administered with the same solvent as that used in the group of the compound as shown in Formula I (the administration mode and time were shown in Table 3), and then being injected or intragastrically administered with the chemotherapeutic agent (the type, administration mode and dosage were shown in Table 3); the group of the compound as shown in Formula I: being injected or intragastrically administered with the compound as shown in Formula I (the administration mode and time were shown in Table 3), and then being administered with the chemotherapeutic agent (the administration mode and dosage were shown in Table 3).
(§1) The scoring of diarrhea can refer to the method of Akinobu Kurita (Cancer Chemother Pharmacol 2000; 46:211-20.), Grade 0: normal feces; Grade 1: mild diarrhea, the stools is slightly wet and soft; Grade 2: moderate diarrhea, loose stools and mild perianal contamination; Grade 3: severe diarrhea, watery stools and accompanied by severe perianal staining (see FIG. 1). It is regarded as effective remission when the diarrhea grading of mice in the group of the compound as shown in Formula I is reduced compared with the average diarrhea grading of mice in the chemotherapeutic agent group.
(§2) The diarrhea grading of mice was observed and recorded every day. At the end of the experiment, the number of mice in the group of the compound as shown in Formula I whose diarrhea grading was lower than that of mice in the chemotherapeutic agent group was recorded. Table 3 lists various animal experiment combinations of chemotherapeutic agents and the compound as shown in Formula I, as well as the corresponding experimental results. (Relative remission rate %=the number of mice in the group of the compound as shown in Formula I whose diarrhea has been effectively relieved/the total number of mice in the group of the compound as shown in Formula I*100%. The establishment rate of diarrhea model in the chemotherapeutic agent group was 50%-70%, that is, about 5-7 of 10 mice developed diarrhea during the experiment, and there were cases of individual mice death or not developing diarrhea.)

[2] = system: Balb/c mice, diarrhea caused by continuous administration of a chemotherapeutic agent; test: Relieving effect on diarrhea caused by the continuous administration of a chemotherapeutic agent (Examples 365-384); format: in vivo
Description: Balb/c mice were fed for 1 week, and then divided into groups. The experiment was divided into a control group, a chemotherapeutic agent group, and a group of the compound as shown in Formula I, each of which comprised 10 mice, to perform the administration experiment, for which the administration dosage, mode, time and frequency were shown in Table 5. The control group: being injected or intragastrically administered with the same solvent as that used in the group of the compound as shown in Formula I (the administration mode and time were shown in Table 5), and then being injected or intragastrically administered with the same solvent as that used in the chemotherapeutic agent group (the administration mode was shown in Table 5); the chemotherapeutic agent group: being injected or intragastrically administered with the same solvent as that used in the group of the compound as shown in Formula I (the administration mode and time were shown in Table 5), and then being injected or intragastrically administered with the chemotherapeutic agent (the type, administration mode, time and dosage were shown in Table 5); the group of the compound as shown in Formula I: being injected or intragastrically administered with the compound as shown in Formula I (the administration mode and time were shown in Table 5), and then being administered with the chemotherapeutic agent (the type, administration mode, time and dosage were shown in Table 5).
as §1, with “0):” for “0:”
as §2, with “5” for “3”, “50%-80%,” for “50%-70%,”, “5-8” for “5-7”

[3] = continuous administration of the chemotherapeutic agent for 7 days or less
[4] = continuous administration of the chemotherapeutic agent for less than 7 days

With CN1CCN(c2ccc(Nc3ncc4cc5n(c4n3)C3(CCCCC3)CNC5=O)nc2)CC1 [Compound I hydrochloride, Trilaciclib dihydrochloride] as the compound, how does the Relative remission rate ([1]; Ex 132, Fluorouracil 100 + irinotecan 200 mg/kg intraperitoneal single, compound 150 mg/kg intraperitoneal single 0.5 h before, cycle 8 days) read?
The Relative remission rate was 30%.

What about the Relative remission rate ([1]; Ex 133, Fluorouracil 100 + irinotecan 200 mg/kg intraperitoneal single, compound 150 mg/kg intraperitoneal single 6 h before, cycle 8 days) of the same compound?
The Relative remission rate was 60%.

And the Relative remission rate ([1]; Ex 134, Fluorouracil 100 + irinotecan 200 mg/kg intraperitoneal single, compound 150 mg/kg intraperitoneal single 12 h before, cycle 8 days)?
Its Relative remission rate is 50%.

What about the Relative remission rate ([1]; Ex 161, Fluorouracil 50 + oxaliplatin 5 + irinotecan 50 + tetrahydrofolic acid 90 mg/kg intraperitoneal single, compound 150 mg/kg intraperitoneal single 0.5 h before, cycle 7 days) of the same compound?
Its Relative remission rate is 70%.

And the Relative remission rate ([1]; Ex 162, Fluorouracil 50 + oxaliplatin 5 + irinotecan 50 + tetrahydrofolic acid 90 mg/kg intraperitoneal single, compound 150 mg/kg intraperitoneal single 12 h before, cycle 7 days)?
Its Relative remission rate is 40%.

What about the Relative remission rate ([1]; Ex 194, Topotecan 10 mg/kg intraperitoneal single, compound 100 mg/kg oral single 4 h before, cycle 14 days) of the same compound?
Its Relative remission rate is 50%.

And the Relative remission rate ([1]; Ex 200, Gemcitabine and carboplatin 120 mg/kg intraperitoneal single, compound 100 mg/kg oral single 4 h before, cycle 8 days)?
Its Relative remission rate is 70%.

And the “Relative remission rate (%)” value ([2]; Example 373, Fluorouracil (5-Fu) intraperitoneal injection 70 mg/kg once a day for 5 days, compound intraperitoneal injection 150 mg/kg single, 2 h before chemotherapeutic agent, cycle 9 days)?
Its value is 60%.

What about the “Relative remission rate (%)” value ([2]; Example 374, Fluorouracil (5-Fu) intraperitoneal injection 70 mg/kg once a day for 5 days, compound intraperitoneal injection 150 mg/kg single, 4 h before chemotherapeutic agent, cycle 9 days) of the same compound?
The value was 30%.

What about the “Relative remission rate (%)” value ([2]; Example 375, Fluorouracil (5-Fu) intraperitoneal injection 70 mg/kg once a day for 5 days, compound intraperitoneal injection 150 mg/kg single, 8 h before chemotherapeutic agent, cycle 9 days) of the same compound?
The value was 10%.

Which Relative remission rate ([1]; Ex 31, 5-Fu 125 mg/kg intraperitoneal single, compound 50 mg/kg intraperitoneal single 0.5 h before, cycle 10 days) does the source give for O=C1NCC2(CCCCC2)n2c1cc1cnc(Nc3ccc(N4CCNCC4)cn3)nc12 [Compound II] here?
Its Relative remission rate is 30%.

And the Relative remission rate ([1]; Ex 32, 5-Fu 125 mg/kg intraperitoneal single, compound 100 mg/kg intraperitoneal single 4 h before, cycle 10 days)?
Its Relative remission rate is 60%.

And the Relative remission rate ([1]; Ex 33, 5-Fu 125 mg/kg intraperitoneal single, compound 150 mg/kg intraperitoneal single 12 h before, cycle 10 days)?
The Relative remission rate was 40%.

What about the Relative remission rate ([1]; Ex 173, Fluorouracil 50 + oxaliplatin 5 + irinotecan 50 + tetrahydrofolic acid 90 mg/kg intraperitoneal single, compound 100 mg/kg oral single 0.5 h before, cycle 7 days) of the same compound?
Its Relative remission rate is 30%.

And the Relative remission rate ([1]; Ex 174, Fluorouracil 50 + oxaliplatin 5 + irinotecan 50 + tetrahydrofolic acid 90 mg/kg intraperitoneal single, compound 100 mg/kg oral single 4 h before, cycle 7 days)?
Its Relative remission rate is 30%.

What about the Relative remission rate ([1]; Ex 175, Fluorouracil 50 + oxaliplatin 5 + irinotecan 50 + tetrahydrofolic acid 90 mg/kg intraperitoneal single, compound 100 mg/kg oral single 8 h before, cycle 7 days) of the same compound?
Its Relative remission rate is 40%.

And the Relative remission rate ([1]; Ex 176, Fluorouracil 50 + oxaliplatin 5 + irinotecan 50 + tetrahydrofolic acid 90 mg/kg intraperitoneal single, compound 100 mg/kg oral single 12 h before, cycle 7 days)?
Its Relative remission rate is 30%.

And the Relative remission rate ([1]; Ex 177, Fluorouracil 50 + oxaliplatin 5 + irinotecan 50 + tetrahydrofolic acid 90 mg/kg intraperitoneal single, compound 100 mg/kg oral single 24 h before, cycle 7 days)?
The Relative remission rate was 30%.

And the Relative remission rate ([1]; Ex 197, Gemcitabine (GEM) 120 mg/kg intravenous single, compound 100 mg/kg oral single 24 h before, cycle 8 days)?
The Relative remission rate was 40%.

What about the Relative remission rate ([1]; Ex 198, Etoposide 60 + carboplatin 5 mg/kg intraperitoneal single, compound 100 mg/kg oral single 2 h before, cycle 10 days) of the same compound?
The Relative remission rate was 50%.

And the “diarrhea gradings compared with the chemotherapeutic agent group” value [1]?
The value was “relieved to different degrees”.

And the “Relative remission rate (%)” value ([2]; Example 381, Fluorouracil (5-Fu) intravenous injection 70 mg/kg once a day, for 3 days, compound intramuscular injection 100 mg/kg once a day, for 3 days, 0.5 h before chemotherapeutic agent, cycle 8 days)?
Its value is 40%.

What about the “relieving effects on diarrhea” value [2, 3] of the same compound?
The value was “have relieving effects”.

And the “relieving effects on diarrhea” value [2, 4]?
The value was “significant”.

CC(C)N1CCN(c2ccc(Nc3ncc4cc5n(c4n3)C3(CCCCC3)CNC5=O)nc2)CC1 [Compound IV, Lerociclib] was tested. Which Relative remission rate ([1]; Ex 112, Irinotecan (CPT-11) 240 mg/kg intraperitoneal single, compound 100 mg/kg intraperitoneal single 0.5 h before, cycle 11 days) did it give?
Its Relative remission rate is 60%.

And the Relative remission rate ([1]; Ex 113, Irinotecan (CPT-11) 240 mg/kg intraperitoneal single, compound 100 mg/kg intraperitoneal single 4 h before, cycle 11 days)?
The Relative remission rate was 50%.

And the Relative remission rate ([1]; Ex 114, Irinotecan (CPT-11) 240 mg/kg intraperitoneal single, compound 100 mg/kg intraperitoneal single 8 h before, cycle 11 days)?
Its Relative remission rate is 30%.

And the Relative remission rate ([1]; Ex 135, Fluorouracil 100 + irinotecan 200 mg/kg intraperitoneal single, compound 100 mg/kg oral single 0.5 h before, cycle 8 days)?
The Relative remission rate was 30%.

What about the Relative remission rate ([1]; Ex 136, Fluorouracil 100 + irinotecan 200 mg/kg intraperitoneal single, compound 100 mg/kg oral single 12 h before, cycle 8 days) of the same compound?
Its Relative remission rate is 50%.

What about the Relative remission rate ([1]; Ex 137, Fluorouracil 100 + irinotecan 200 mg/kg intraperitoneal single, compound 100 mg/kg oral single 24 h before, cycle 8 days) of the same compound?
Its Relative remission rate is 40%.

What about the Relative remission rate ([1]; Ex 183, Fluorouracil 50 + oxaliplatin 5 + irinotecan 50 + tetrahydrofolic acid 90 mg/kg intravenous single, compound 100 mg/kg intraperitoneal single 0.5 h before, cycle 7 days) of the same compound?
Its Relative remission rate is 80%.

And the Relative remission rate ([1]; Ex 184, Fluorouracil 50 + oxaliplatin 5 + irinotecan 50 + tetrahydrofolic acid 90 mg/kg intravenous single, compound 100 mg/kg intraperitoneal single 4 h before, cycle 7 days)?
Its Relative remission rate is 60%.

What about the Relative remission rate ([1]; Ex 185, Fluorouracil 50 + oxaliplatin 5 + irinotecan 50 + tetrahydrofolic acid 90 mg/kg intravenous single, compound 100 mg/kg intraperitoneal single 8 h before, cycle 7 days) of the same compound?
Its Relative remission rate is 50%.

And the Relative remission rate ([1]; Ex 186, Fluorouracil 50 + oxaliplatin 5 + irinotecan 50 + tetrahydrofolic acid 90 mg/kg intravenous single, compound 100 mg/kg intraperitoneal single 12 h before, cycle 7 days)?
The Relative remission rate was 50%.

And the Relative remission rate ([1]; Ex 187, Fluorouracil 50 + oxaliplatin 5 + irinotecan 50 + tetrahydrofolic acid 90 mg/kg intravenous single, compound 100 mg/kg intraperitoneal single 24 h before, cycle 7 days)?
Its Relative remission rate is 40%.

And the Relative remission rate ([1]; Ex 195, Topotecan 20 mg/kg intravenous single, compound 100 mg/kg oral single 0.5 h before, cycle 14 days)?
The Relative remission rate was 60%.

What about the “diarrhea gradings compared with the chemotherapeutic agent group” value [1] of the same compound?
Its value is “relieved to different degrees”.

What about the “Relative remission rate (%)” value ([2]; Example 380, Fluorouracil (5-Fu) intraperitoneal injection 70 mg/kg once a day, for 3 days, compound oral administration 100 mg/kg once a day, for 3 days, 4 h before chemotherapeutic agent, cycle 8 days) of the same compound?
The value was 30%.

And the “relieving effects on diarrhea” value [2, 3]?
The value was “have relieving effects”.

What about the “relieving effects on diarrhea” value [2, 4] of the same compound?
The value was “significant”.
